Results as given in patent publication US8637484B2, “Modulation of growth hormone receptor expression and insulin-like growth factor expression” (Antisense Therapeutic Limited, priority 2003, dated 2014).
In the oligonucleotide strings, read from the 5' end, every base follows the letter of its sugar. An asterisk marks phosphorothioate; unmarked linkages are phosphodiester. Other units and linkages are bracketed, terminal groups are in braces. A string of capitals states the bases alone. e = 2'-O-(2-methoxyethyl) (MOE); [5mC] = 5-methylcytosine; d = 2'-deoxy (DNA)

These substances were tested on human growth hormone receptor mRNA (assay: Inhibition of human growth hormone receptor mRNA levels in MCF7 cells, quantitative real-time PCR). Conditions: averages from three experiments.
Type: cell-based
Parameters: concentration or dose not given beside the values
Method: The human breast carcinoma cell line MCF-7 was obtained from the American Type Culture Collection (Manassas, Va.). MCF-7 cells were routinely cultured in DMEM low glucose (Gibco/Life Technologies, Gaithersburg, Md.) supplemented with 10% fetal calf serum (Gibco/Life Technologies, Gaithersburg, Md.). Cells were routinely passaged by trypsinization and dilution when they reached 90% confluence. Cells were seeded into 96-well plates (Falcon-Primaria #3872) at a density of 7000 cells/well for use in RT-PCR analysis.
(§1) When cells reached 65-75% confluency, they were treated with oligonucleotide. For cells grown in 96-well plates, wells were washed once with 100 μL OPTI-MEM™-1 reduced-serum medium (Invitrogen Corporation, Carlsbad, Calif.) and then treated with 130 μL of OPTI-MEM™-1 containing 3.75 μg/mL LIPOFECTIN™ (Invitrogen Corporation, Carlsbad, Calif.) and the desired concentration of oligonucleotide. Cells are treated and data are obtained in triplicate. After 4-7 hours of treatment at 37° C., the medium was replaced with fresh medium. Cells were harvested 16-24 hours after oligonucleotide treatment.
(§2) Total RNA was isolated using an RNEASY 96™ kit and buffers purchased from Qiagen Inc. (Valencia, Calif.) following the manufacturer's recommended procedures. Briefly, for cells grown on 96-well plates, growth medium was removed from the cells and each well was washed with 200 μL cold PBS. 150 μL Buffer RLT was added to each well and the plate vigorously agitated for 20 seconds. 150 μL of 70% ethanol was then added to each well and the contents mixed by pipetting three times up and down. The samples were then transferred to the RNEASY 96™ well plate attached to a QIAVAC™ manifold fitted with a waste collection tray and attached to a vacuum source. Vacuum was applied for 1 minute. 500 μL of Buffer RW1 was added to each well of the RNEASY 96™ plate and incubated for 15 minutes and the vacuum was again applied for 1 minute. An additional 500 μL of Buffer RW1 was added to each well of the RNEASY 96™ plate and the vacuum was applied for 2 minutes. 1 mL of Buffer RPE was then added to each well of the RNEASY 96™ plate and the vacuum applied for a period of 90 seconds. The Buffer RPE wash was then repeated and the vacuum was applied for an additional 3 minutes. The plate was then removed from the QIAVAC™ manifold and blotted dry on paper towels. The plate was then re-attached to the QIAVAC™ manifold fitted with a collection tube rack containing 1.2 mL collection tubes. RNA was then eluted by pipetting 140 μL of RNAse free water into each well, incubating 1 minute, and then applying the vacuum for 3 minutes.
(§3) Quantitation of growth hormone receptor mRNA levels was accomplished by real-time quantitative PCR using the ABI PRISM™ 7600, 7700, or 7900 Sequence Detection System (PE-Applied Biosystems, Foster City, Calif.) according to manufacturer's instructions. This is a closed-tube, non-gel-based, fluorescence detection system which allows high-throughput quantitation of polymerase chain reaction (PCR) products in real-time. As opposed to standard PCR in which amplification products are quantitated after the PCR is completed, products in real-time quantitative PCR are quantitated as they accumulate. This is accomplished by including in the PCR reaction an oligonucleotide probe that anneals specifically between the forward and reverse PCR primers, and contains two fluorescent dyes. A reporter dye (e.g., FAM or JOE, obtained from either PE-Applied Biosystems, Foster City, Calif., Operon Technologies Inc., Alameda, Calif. or Integrated DNA Technologies Inc., Coralville, Iowa) is attached to the 5′ end of the probe and a quencher dye (e.g., TAMRA, obtained from either PE-Applied Biosystems, Foster City, Calif., Operon Technologies Inc., Alameda, Calif. or Integrated DNA Technologies Inc., Coralville, Iowa) is attached to the 3′ end of the probe. When the probe and dyes are intact, reporter dye emission is quenched by the proximity of the 3′ quencher dye. […]

First: 227490 (antisense eG*e[5mC]*eA*eT*eG*dA*dT*dT*dT*dT*dG*dT*dT*d[5mC]*dA*eG*eT*eT*eG*eG) [compound 227490]
Second: 227469 (antisense e[5mC]*eT*eT*eA*eG*dA*dA*dG*dT*d[5mC]*dT*dG*dT*d[5mC]*dT*eG*eT*eG*eT*e[5mC]) [compound 227469]
The “% INHIB” value of the first is higher: 67% for the first, 63% for the second.

Going from “227480 (antisense eA*eT*eG*eT*eA*dA*dA*dT*dG*dT*d[5mC]*d[5mC]*dT*d[5mC]*dT*eT*eG*eG*eT*eT) [compound 227480]” to “272311 (antisense eT*eT*eG*e[5mC]*eA*d[5mC]*dT*dA*dT*dT*dT*d[5mC]*dA*dT*d[5mC]*eA*eA*e[5mC]*eA*eG) [compound 272311]”, the “% INHIB” value falls from 66% to 47%.

Going from “227481 (antisense eT*eG*eG*eT*eG*dA*dT*dG*dT*dA*dA*dA*dT*dG*dT*e[5mC]*e[5mC]*eT*e[5mC]*eT) [compound 227481]” to “272348 (antisense e[5mC]*eA*e[5mC]*eA*eG*d[5mC]*dT*dT*dT*dG*dA*dA*dT*dT*dG*eA*eA*eT*eT*eA) [compound 272348]”, the “% INHIB” value rises from 45% to 57%.

Going from “272357 (antisense eT*eA*eG*eG*eG*dT*d[5mC]*d[5mC]*dA*dT*d[5mC]*dT*dT*dT*d[5mC]*eA*eA*eG*eA*e[5mC]) [compound 272357]” to “272343 (antisense eA*eA*eT*eG*e[5mC]*dT*d[5mC]*dT*d[5mC]*dA*dA*dG*dA*dA*dT*eG*eA*eT*eG*eT) [compound 272343]”, the “% INHIB” value falls from 62% to 48%.

Compared with “272338 (antisense eG*eT*eG*e[5mC]*eT*dA*dT*dG*dG*dT*dT*dT*dG*d[5mC]*dA*eT*eT*e[5mC]*eA*eA) [compound 272338]”, “272333 (antisense eG*eT*eG*e[5mC]*eT*d[5mC]*dA*d[5mC]*dA*dT*dA*dG*d[5mC]*d[5mC]*dA*e[5mC]*eA*eT*eG*eA) [compound 272333]” is lower in “% INHIB” value: 78% for the first, 72% for the second.

Compared with “272304 (antisense eT*eG*e[5mC]*eT*eA*dA*dG*dG*dA*dT*dA*dG*d[5mC]*dT*dG*e[5mC]*eT*eG*eT*eG) [compound 272304]”, “272358 (antisense eT*e[5mC]*eT*e[5mC]*e[5mC]*dA*dG*dA*dT*dA*dG*dA*dA*dT*d[5mC]*eT*eA*eA*eA*e[5mC]) [compound 272358]” is higher in “% INHIB” value: 48% for the first, 53% for the second.

Going from “272306 (antisense eT*eT*eA*eG*eA*dA*dG*dA*dA*dT*dT*dT*dG*dT*d[5mC]*eT*eT*eT*eA*eG) [compound 272306]” to “272342 (antisense eT*eA*eG*eT*eG*dA*dG*dA*dA*dA*dG*dA*dA*dA*dG*eT*eT*eT*e[5mC]*eT) [compound 272342]”, the “% INHIB” value rises from 13% to 45%.

Compared with “272309 (antisense eT*eA*eA*e[5mC]*eA*dG*d[5mC]*dT*dG*dT*dT*dT*dT*d[5mC]*d[5mC]*e[5mC]*e[5mC]*eA*eG*e[5mC]) [compound 272309]”, “227488 (antisense eA*eG*eT*eT*eG*dG*dT*d[5mC]*dT*dG*dT*dG*d[5mC]*dT*d[5mC]*eA*e[5mC]*eA*eT*eA) [compound 227488]” is higher in “% INHIB” value: 85% for the first, 86% for the second.

Going from “272329 (antisense eA*e[5mC]*eT*eT*eT*dT*dT*dG*dG*d[5mC]*dA*dT*d[5mC]*dT*dG*e[5mC]*e[5mC]*eT*e[5mC]*eA) [compound 272329]” to “272307 (antisense eG*eT*eG*eA*eA*dT*dT*dT*dA*dG*dG*d[5mC]*dT*d[5mC]*d[5mC]*eT*eT*eA*eG*eA) [compound 272307]”, the “% INHIB” value falls from 63% to 55%.

Compared with “272351 (antisense eA*eT*eA*eG*eA*dA*dA*dT*dG*dT*dT*dG*dT*d[5mC]*dA*eG*eG*e[5mC]*eT*eG) [compound 272351]”, “272322 (antisense e[5mC]*eT*eG*eG*e[5mC]*dT*d[5mC]*dA*dT*d[5mC]*dA*dA*dT*dA*dT*e[5mC]*eT*eA*eG*e[5mC]) [compound 272322]” is higher in “% INHIB” value: 57% for the first, 84% for the second.

Going from “227501 (antisense eG*e[5mC]*eT*eA*eT*dT*dT*dT*dT*dG*dG*d[5mC]*dT*dA*dT*eA*eG*eA*eA*eA) [compound 227501]” to “272318 (antisense eT*e[5mC]*eA*eG*e[5mC]*dA*dT*dT*dT*dT*dA*dA*dT*d[5mC]*d[5mC]*eT*eT*eT*eG*e[5mC]) [compound 272318]”, the “% INHIB” value falls from 64% to 55%.

In the case of “272308 (antisense eG*e[5mC]*eT*eG*eT*dA*dT*dG*dG*dG*dT*d[5mC]*d[5mC]*dT*dA*eG*eG*eT*eT*e[5mC]) [compound 272308]”, the “% INHIB” value is reported as 57%.

What follows are substances tested on mouse growth hormone receptor mRNA (assay: Inhibition of mouse growth hormone receptor mRNA levels in b.END cells, quantitative real-time PCR). Conditions: mouse growth hormone receptor mRNA, b.END cells, averages from three experiments.
Type: cell-based
Parameters: % INHIB: concentration or dose not given beside the values
Method: The mouse brain endothelial cell line b.END was obtained from Dr. Werner Risau at the Max Plank Instititute (Bad Nauheim, Germany). b.END cells were routinely cultured in DMEM, high glucose (Gibco/Life Technologies, Gaithersburg, Md.) supplemented with 10% fetal calf serum (Gibco/Life Technologies, Gaithersburg, Md.). Cells were routinely passaged by trypsinization and dilution when they reached 90% confluence. Cells were seeded into 96-well plates (Falcon-Primaria #3872) at a density of 3000 cells/well for use in RT-PCR analysis.
as §1, §2
as §3, with “probe.” for “probe. When the probe and dyes are intact, reporter dye emission is quenched by the proximity of the 3′ quencher dye.”

Going from “227504 (antisense eT*eA*e[5mC]*e[5mC]*eT*dG*dA*dG*dA*d[5mC]*d[5mC]*d[5mC]*d[5mC]*dG*d[5mC]*eG*e[5mC]*eA*eG*e[5mC]) [compound 227504]” to “227512 (antisense eT*eA*eA*e[5mC]*e[5mC]*dT*dA*dT*dG*dG*dT*dG*dA*d[5mC]*dT*eA*eT*eG*eT*e[5mC]) [compound 227512]”, the “% INHIB” value rises from 34% to 36%.

Compared with “227477 (antisense e[5mC]*eA*e[5mC]*eT*eG*dT*dT*d[5mC]*dA*dT*dG*d[5mC]*dT*dG*dT*eA*eA*eT*eT*eT) [compound 227477]”, “227505 (antisense eT*eA*e[5mC]*e[5mC]*eT*dG*dA*dG*dA*d[5mC]*d[5mC]*d[5mC]*dA*d[5mC]*dA*eA*eG*e[5mC]*eG*eG) [compound 227505]” is lower in “% INHIB” value: 61% for the first, 39% for the second.

Compared with “227461 (antisense eT*eG*e[5mC]*eT*eA*d[5mC]*dT*d[5mC]*d[5mC]*dA*dA*dA*dT*dA*dT*eT*e[5mC]*e[5mC]*eA*eA) [compound 227461]”, “227457 (antisense eG*eA*eA*eT*eT*dA*dT*d[5mC]*d[5mC]*dA*dT*d[5mC]*d[5mC]*d[5mC]*dT*eT*e[5mC]*eA*eG*eA) [compound 227457]” is lower in “% INHIB” value: 75% for the first, 67% for the second.

In the case of “227466 (antisense eT*eT*eG*eT*eA*dG*dT*dT*dA*dT*d[5mC]*dA*dT*dG*dA*eA*eT*eG*e[5mC]*e[5mC]) [compound 227466]”, the “% INHIB” value is reported as 50%.
